Assay results: patent US9546129B2, “DTPA prodrugs, compositions thereof, and methods of using the same” (priority 2012, dated 2017)
Marks after values point to notes of the source that are not given here.

Tested on: ^241Am contaminated beagle dogs (inhalation)
Experiment: Decorporation efficacy in beagle dogs after ^241Am nitrate inhalation (Example 2)
Type: in vivo, beagle dog
Conditions: for Average percent recovered activity, Feces / Average percent recovered activity, Urine: cumulative, Mean (SEM); for Average percent recovered activity, GIT / Average percent recovered activity, Kidney / Average percent recovered activity, Liver / Average percent recovered activity, Lung / Average percent recovered activity, Ovaries / Average percent recovered activity, Soft Tissue / Average percent recovered activity, Spleen / Average percent recovered activity, TBLN / Average percent recovered activity, Testes / Average percent recovered activity, Total Bone: day 14, Mean (SEM)
Method: The efficacy of C2E2 of Lot 050 obtained using Method 2 was evaluated in male and female beagle dogs administered a nitrate complex of americium-241 (^241Am) via inhalation (INH). C2E2 was administered 24 hours post ^241Am inhalation exposure. Animals were monitored and urine and feces were collected daily. Cages were rinsed daily. Animals were euthanized 14 days later and tissues collected. Tissues were processed and analyzed for ^241Am content. The in-life measurements and biokinetics of ^241Am with and without chelation treatment are described.
Sixteen (16) male and female beagle dogs underwent a 14-day quarantine period for acclimation. Once released from quarantine, animals were weighed and that weight was used to randomize the animals into the study. Dogs were 13.3±2.2 months of age at study initiation and weighed 8.9±1.2 kg. After randomization, the animals were acclimated to metabolism cages for approximately 24 hours prior to radionuclide inhalation administration of ^241Am(III)-nitrate at time 0 followed by oral gavage administration of vehicle (water) or 100, 300, or 500 mg/kg C2E2 at 24 hours post inhalation exposure. Animals were placed in metabolism cages for the duration of the in-life phase.
Animals were euthanized 14 days after administration of ^241Am. A full necropsy was conducted and liver, spleen, kidneys, lungs and trachea, muscle samples (right and left quadriceps), GI tract (stomach and esophagus, upper and lower intestine), gonads, two femurs, lumbar vertebrae (L1-L4), paws and tail, TBLN, and all soft tissue remains were collected. The brain and eyes were removed from the skull and combined with the soft tissue remains. The skeleton was defleshed and all bone samples collected for analysis. Pelt was not analyzed for ^241Am content.
Urine, feces, cage rinse, and all tissue samples were processed by heat and chemical treatments. The samples were analyzed by gamma pulse height analysis.
For the study, stock C2E2 (L/N: 020WJL050) was obtained as a white powder and stored at 2-8° C. The C2E2 was weighed out and dissolved in vehicle, DI water. Solutions were prepared at 20 mg/mL, 60 mg/mL, and 100 mg/mL on each day of dosing. The formulation was protected from light by wrapping the container in aluminum foil. Metal-free spatulas, glassware, and stir bars were used when weighing and preparing the formulation.
On the morning of exposure, animals were fasted and sedated with acepromazine (0.05 mg/kg) by intramuscular administration. Dogs were anesthetized with isoflurane (5%). A latex mask was placed over the muzzle to minimize external contamination of the dog. The latex-covered muzzle was placed into the exposure plenum where a mixture of oxygen and isoflurane were continuously flowing and being monitored. Oxygen in the box was maintained at 45-55% and isoflurane was delivered as needed (2-3% in oxygen) to ensure the dog remained anesthetized. Aerosols were generated from the ^241Am nitrate solution using a Hospitec nebulizer operated at 10 psi. The aerosol was transited through a tube furnace operating at 70-80° C. to dry the aerosol and minimize the amount of acid present.
The exhaust flow was 12.2 L/min. Aerosols were collected on Pallflex® FiberFilm™ filters at a flow rate of 0.49 L/min for filter samples and 1.95 L/min for cascade impactor samples. Filters were placed in 20-mL vials with 5 mL of 7N HNO3 and vortexed for 30 seconds. The filters were removed and placed singly into another 20-mL vial. A […] aliquot was removed from the original vial. The filter and the aliquot were individually analyzed for ^241Am and the amount collected on the filter was determined. The aerosol concentration was determined to be 1155±223 nCi/L. The particle size was determined to be 0.63 μm AMAD (activity median aerodynamic diameter) with a 1.72 geometric standard deviation (GSD). Animals were exposed for 8 minutes. […]

[1] = C2E2 100 mg/kg (low dose) vs untreated control, dogs, 100 mg/kg
[2] = C2E2 100 mg/kg oral 24 h after ^241Am inhalation, dogs
[3] = C2E2 300 mg/kg (mid dose) vs untreated control, dogs, 300 mg/kg
[4] = C2E2 300 mg/kg oral 24 h after ^241Am inhalation, dogs
[5] = C2E2 500 mg/kg (high dose) vs untreated control, dogs, 500 mg/kg
[6] = C2E2 500 mg/kg oral 24 h after ^241Am inhalation, dogs
[7] = treated groups vs controls, dose not specified

With `CCOC(=O)CN(CCN(CCN(CC(=O)O)CC(=O)OCC)CC(=O)O)CC(=O)O` [C2E2, 6,9-bis(carboxymethyl)-3-(2-ethoxy-2-oxoethyl)-11-oxo-12-oxa-3,6,9-triazatetradecan-1-oic acid] the “Percent ^241Am content reduction in tissue, GIT” value [1] was 43.9%, the “Percent ^241Am content reduction in tissue, Gonads” value [1] was 51.1% and the “Percent ^241Am content reduction in tissue, Kidneys” value [1] was 52.4%. For the same compound, the “Percent ^241Am content reduction in tissue, Liver” value [1] was 29.7%, the “Percent ^241Am content reduction in tissue, Lungs” value [1] was 30.6% and the “Percent ^241Am content reduction in tissue, Soft Tissue” value [1] was 47.1%. For the same compound, the “Percent ^241Am content reduction in tissue, Spleen” value [1] was 47.7%, the “Percent ^241Am content reduction in tissue, TBLN” value [1] was 22.9% and the “Percent ^241Am content reduction in tissue, Total Bone” value [1] was 41.6%. For the same compound, the “Average percent recovered activity, Feces” value [2] was 31.78 (3.21) %, the “Average percent recovered activity, Urine” value [2] was 22.35 (0.56)** % and the “Average percent recovered activity, GIT” value (C2E2 100 mg/kg, dogs) was 0.53 (0.05)** %. The “Average percent recovered activity, Kidney” value (C2E2 100 mg/kg, dogs) was 0.37 (0.03)** %, the “Average percent recovered activity, Liver” value (C2E2 100 mg/kg, dogs) was 19.13 (1.34)** % and the “Average percent recovered activity, Lung” value (C2E2 100 mg/kg, dogs) was 9.69 (1.77)* %. The “Average percent recovered activity, Ovaries” value (C2E2 100 mg/kg, dogs) was 0.001 (0.000) %, the “Average percent recovered activity, Soft Tissue” value (C2E2 100 mg/kg, dogs) was 1.08 (0.07)** % and the “Average percent recovered activity, Spleen” value (C2E2 100 mg/kg, dogs) was 0.16 (0.03) %. For the same compound, the “Average percent recovered activity, TBLN” value (C2E2 100 mg/kg, dogs) was 0.028 (0.002) %, the “Average percent recovered activity, Testes” value (C2E2 100 mg/kg, dogs) was 0.003 (0.001)* % and the “Average percent recovered activity, Total Bone” value (C2E2 100 mg/kg, dogs) was 14.90 (1.97)** %. For the same compound, the “Percent ^241Am content reduction in tissue, GIT” value [3] was 58.2%, the “Percent ^241Am content reduction in tissue, Gonads” value [3] was 66.3% and the “Percent ^241Am content reduction in tissue, Kidneys” value [3] was 63.0%. The “Percent ^241Am content reduction in tissue, Liver” value [3] was 51.0%, the “Percent ^241Am content reduction in tissue, Lungs” value [3] was 48.2% and the “Percent ^241Am content reduction in tissue, Soft Tissue” value [3] was 51.8%. The “Percent ^241Am content reduction in tissue, Spleen” value [3] was 74.8%, the “Percent ^241Am content reduction in tissue, TBLN” value [3] was 31.7% and the “Percent ^241Am content reduction in tissue, Total Bone” value [3] was 45.5%. The “Percent change in excretion, Feces” value [3] was 155%, the “Average percent recovered activity, Feces” value [4] was 41.85 (4.43)** % and the “Average percent recovered activity, Urine” value [4] was 21.93 (2.26)** %. For the same compound, the “Average percent recovered activity, GIT” value (C2E2 300 mg/kg, dogs) was 0.39 (0.06)** %, the “Average percent recovered activity, Kidney” value (C2E2 300 mg/kg, dogs) was 0.28 (0.04)** % and the “Average percent recovered activity, Liver” value (C2E2 300 mg/kg, dogs) was 13.35 (1.51)** %. For the same compound, the “Average percent recovered activity, Lung” value (C2E2 300 mg/kg, dogs) was 7.23 (0.89)** %, the “Average percent recovered activity, Ovaries” value (C2E2 300 mg/kg, dogs) was 0.001 (0.001)* % and the “Average percent recovered activity, Soft Tissue” value (C2E2 300 mg/kg, dogs) was 0.99 (0.12)** %. For the same compound, the “Average percent recovered activity, Spleen” value (C2E2 300 mg/kg, dogs) was 0.07 (0.02)** %, the “Average percent recovered activity, TBLN” value (C2E2 300 mg/kg, dogs) was 0.024 (0.004) % and the “Average percent recovered activity, Testes” value (C2E2 300 mg/kg, dogs) was 0.003 (0.001)* %. The “Average percent recovered activity, Total Bone” value (C2E2 300 mg/kg, dogs) was 13.93 (1.30)** %, the “Percent ^241Am content reduction in tissue, GIT” value [5] was 54.1% and the “Percent ^241Am content reduction in tissue, Gonads” value [5] was 55.3%. For the same compound, the “Percent ^241Am content reduction in tissue, Kidneys” value [5] was 61.8%, the “Percent ^241Am content reduction in tissue, Liver” value [5] was 71.7% and the “Percent ^241Am content reduction in tissue, Lungs” value [5] was 63.5%. The “Percent ^241Am content reduction in tissue, Soft Tissue” value [5] was 50.7%, the “Percent ^241Am content reduction in tissue, Spleen” value [5] was 69.0% and the “Percent ^241Am content reduction in tissue, TBLN” value [5] was 35.0%. The “Percent ^241Am content reduction in tissue, Total Bone” value [5] was 48.3%, the “Percent change in excretion, Urine” value [5] was 1310% and the “Average percent recovered activity, Feces” value [6] was 36.53 (1.18)* %. For the same compound, the “Average percent recovered activity, Urine” value [6] was 35.63 (0.70)** %, the “Average percent recovered activity, GIT” value (C2E2 500 mg/kg, dogs) was 0.44 (0.05)** % and the “Average percent recovered activity, Kidney” value (C2E2 500 mg/kg, dogs) was 0.29 (0.01)** %. The “Average percent recovered activity, Liver” value (C2E2 500 mg/kg, dogs) was 7.71 (0.35)** %, the “Average percent recovered activity, Lung” value (C2E2 500 mg/kg, dogs) was 5.10 (0.31)** % and the “Average percent recovered activity, Ovaries” value (C2E2 500 mg/kg, dogs) was 0.001 (0.000) %. The “Average percent recovered activity, Soft Tissue” value (C2E2 500 mg/kg, dogs) was 1.01 (0.02)** %, the “Average percent recovered activity, Spleen” value (C2E2 500 mg/kg, dogs) was 0.09 (0.02)* % and the “Average percent recovered activity, TBLN” value (C2E2 500 mg/kg, dogs) was 0.023 (0.003) %. For the same compound, the “Average percent recovered activity, Testes” value (C2E2 500 mg/kg, dogs) was 0.003 (0.001)* %, the “Average percent recovered activity, Total Bone” value (C2E2 500 mg/kg, dogs) was 13.20 (0.86)** % and the In-life observations (dogs, single oral 100, 300, 500 mg/kg, one 500 mg/kg animal (4004) had foamy emesis) was “no unusual or adverse effects”. The “Reduction of ^241Am content, TBLN” value [7] was “About 50%” and the “Reduction of ^241Am content, total bone content” value [7] was ~40%.
